These are literature values, as cited in PubChem BioAssay AID1259409 (Chemical Carcinogenesis Research Information System (CCRIS), 2018).

Structures are written as SMILES.

This data set relates to rodent chemically induced tumor inhibition, incidence and multiplicity. The data set can be described thus: CCRIS tumor inhibitor studies.
Setting [1] is: Carcinogen: 4-(METHYLNITROSAMINO)-1-(3-PYRIDYL)-1-BUTANONE, 64091-91-4, Dose [Inhibitor]: 0, 25 UMOL IN 0.1 ML CORN OIL ONCE 2 HR PRIOR TO CARCINOGEN DOSE (STUDY DURATION: 16 WK), Route [Inhibitor]: GAVAGE, Species: MOUSE, Strain/Sex: STRAIN-A/FEMALE, Target Tissue: Type of Lesion: LUNG: ADENOMA, Dose [Carcinogen]: 10 UMOL IN 0.1 ML SALINE ONCE, Promoter: NONE USED.

Take `CC(O)CCC(=O)c1cccnc1` (stereo not drawn): the “tumour outcome (control, treated, inhibition, significance)” value under setting [1] was 100%, 100%, 0%, not significant.
As to `CCCCCCCCCCCCO`, where the note is “Carcinogen: 4-(METHYLNITROSAMINO)-1-(3-PYRIDYL)-1-BUTANONE, 64091-91-4, Dose [Inhibitor]: 0, 1 UMOL IN 0.1 ML CORN OIL ONCE 2 HR PRIOR TO CARCINOGEN DOSE (STUDY DURATION: 16 WK), Route [Inhibitor]: GAVAGE, Species: MOUSE, Strain/Sex: STRAIN-A/FEMALE, Target Tissue: Type of Lesion: LUNG: ADENOMA, Dose [Carcinogen]: 10 UMOL IN 0.1 ML SALINE ONCE, Promoter: NONE USED”, the “tumour outcome (control, treated, inhibition, significance)” value is 100%, 100%, 0%, not significant.
Turning to `CCCCCc1ccccc1`, the “tumour outcome (control, treated, inhibition, significance)” value (Carcinogen: 4-(METHYLNITROSAMINO)-1-(3-PYRIDYL)-1-BUTANONE, 64091-91-4, Dose [Inhibitor]: 0, 25 UMOL IN 0.1 ML CORN OIL ONCE 2 HR PRIOR TO CARCINOGEN DOSE (STUDY DURATION: 16 WK), Route [Inhibitor]: GAVAGE, Species: MOUSE, Strain/Sex: STRAIN-A/FEMALE, Target Tissue: Type of Lesion: LUNG: TUMOR, Dose [Carcinogen]: 10 UMOL IN 0.1 ML SALINE ONCE, Promoter: NONE USED) is 100%, 95%, 5%, not significant.
With `CC(=C/C=C/C(C)=C/C=C/C=C(C)/C=C/C=C(\C)C=C=C1C(C)(C)C[C@H](O)C[C@@]1(C)O)/C=C/[C@@]12O[C@]1(C)C[C@@H](O)CC2(C)C`, the “tumour outcome (control, treated, inhibition, significance)” value by setting is: (Carcinogen: 7,12-DIMETHYLBENZ[A]ANTHRACENE, 57-97-6, Dose [Inhibitor]: 0, 0.2 UG IN 0.2 ML ACETONE APPLIED TO BUCCAL POUCH 2/WK FOR 2 WK 1 HR PRIOR TO EACH PROMOTER DOSE (STUDY DURATION: 34 W, Route [Inhibitor]: MUCOUS MEMBRANE, Species: HAMSTER, Strain/Sex: SYRIAN/MALE,FEMALE, Target Tissue: Type of Lesion: BUCCAL POUCH: TUMOR, Dose [Carcinogen]: 200 NMOL IN 0.2 ML ACETONE 3/WK FOR 2 WK, Promoter: 12-O-TETRADECANOYLPHORBOL-13-ACETATE, 16561-29-8) 3/6 (50%), 0/6 (0%), 100%, not calculated; (Carcinogen: 7,12-DIMETHYLBENZ[A]ANTHRACENE, 57-97-6, Dose [Inhibitor]: 0, 0.2 UG IN 0.2 ML ACETONE APPLIED TO BUCCAL POUCH 3/WK FOR 2 WK 1 HR PRIOR TO EACH CARCINOGEN DOSE (STUDY DURATION: 34, Route [Inhibitor]: MUCOUS MEMBRANE, Species: HAMSTER, Strain/Sex: SYRIAN/MALE,FEMALE, Target Tissue: Type of Lesion: BUCCAL POUCH: TUMOR, Dose [Carcinogen]: 200 NMOL IN 0.2 ML ACETONE 3/WK FOR 2 WK, Promoter: 12-O-TETRADECANOYLPHORBOL-13-ACETATE, 16561-29-8) 3/6 (50%), 0/6 (0%), 100%, not calculated.
For `C=C1CC[C@H]2C(C)(C)CCC[C@]2(C)[C@H]1CO`, for the setting “Carcinogen: 7,12-DIMETHYLBENZ[A]ANTHRACENE [57-97-6], Dose [Inhibitor]: 85 NMOL/G IN 0.1 ML ACETONE 2X/WK FOR 20 WK 1 HR PRIOR TO EACH PROMOTER DOSE BEGINNING 1 WK POST LAST CARCINOGEN DOSE (S, Route [Inhibitor]: DERMAL, Species: MOUSE, Strain/Sex: ICR/FEMALE, Target Tissue: Type of Lesion: SKIN: PAPILLOMA, Dose [Carcinogen]: 390 NMOL IN 0.1 ML ACETONE ONCE (STUDY DURATION: 21 WK), Promoter: 12-O-TETRADECANOYL-13-ACETATE [16561-29-8]”, the “tumour outcome (control, treated, inhibition, significance)” value was 100%, 65%, 35%, not calculated.
Regarding `CC(O)CCCCCC(=O)c1ccccc1` (stereo not drawn), under setting [1], the “tumour outcome (control, treated, inhibition, significance)” value was 100%, 100%, 0%, not significant.
Regarding `CC(C)NCC(O)c1ccc(O)c(O)c1` (stereo not drawn), the “tumour outcome (control, treated, inhibition, significance)” value was 10/12 (83%), 10/12 (83%), 0%, not significant (Carcinogen: 1,2-DIMETHYLHYDRAZINE DIHYDROCHLORIDE, 306-37-6, Dose [Inhibitor]: 0, 150 MG/KG BW 1/WK FOR 8 WK BEGINNING 20 D POST CARCINOGEN TREATMENT (STUDY DURATION: 26.5 WK), Route [Inhibitor]: INTRAPERITONEAL, Species: MOUSE, Strain/Sex: CF-1/FEMALE, Target Tissue: Type of Lesion: COLON: TUMOR, Dose [Carcinogen]: 20 MG/KG BW 1/WK FOR 8 WK, Promoter: NONE USED); 12/12 (100%), 9/9 (100%), 0%, not significant (Carcinogen: 1,2-DIMETHYLHYDRAZINE DIHYDROCHLORIDE, 306-37-6, Dose [Inhibitor]: 0, 150 MG/KG BW 1/WK FOR 12 WK ADMINISTERED 39 HR POST EACH CARCINOGEN DOSE (STUDY DURATION: 28 WK), Route [Inhibitor]: INTRAPERITONEAL, Species: MOUSE, Strain/Sex: CF-1/FEMALE, Target Tissue: Type of Lesion: COLON: TUMOR, Dose [Carcinogen]: 20 MG/KG BW 1/WK FOR 12 WK, Promoter: NONE USED); 4/9 (44%), 0/8 (0%), 100%, not calculated (Carcinogen: 1,2-DIMETHYLHYDRAZINE DIHYDROCHLORIDE, 306-37-6, Dose [Inhibitor]: 0, 150 MG/KG BW 2/WK FOR 6 WK ADMINISTERED 15 AND 39 HR AFTER EACH CARCINOGEN DOSE (STUDY DURATION: 30 WK), Route [Inhibitor]: INTRAPERITONEAL, Species: MOUSE, Strain/Sex: CF-1/FEMALE, Target Tissue: Type of Lesion: COLON: TUMOR, Dose [Carcinogen]: 20 MG/KG BW 1/WK FOR 6 WK, Promoter: NONE USED); 12/12 (100%), 8/8 (100%), 0%, not significant (Carcinogen: 1,2-DIMETHYLHYDRAZINE DIHYDROCHLORIDE, 306-37-6, Dose [Inhibitor]: 0, 150 MG/KG BW 2/WK FOR 12 WK ADMINISTERED 15 AND 39 HR POST EACH CARCINOGEN DOSE (STUDY DURATION: 28 WK), Route [Inhibitor]: INTRAPERITONEAL, Species: MOUSE, Strain/Sex: CF-1/FEMALE, Target Tissue: Type of Lesion: COLON: TUMOR, Dose [Carcinogen]: 20 MG/KB BW 1/WK FOR 12 WK, Promoter: NONE USED); 18/20 (90%), 10/18 (56%), 38%, p<0.05 (Carcinogen: AZOXYMETHANE, 25843-45-2, Dose [Inhibitor]: 0.5 MG/KG BW 1/2D IN OLIVE OIL BEGINNING 3 WK PRIOR TO FIRST CARCINOGEN DOSE (STUDY DURATION: 40 WK), Route [Inhibitor]: SUBCUTANEOUS, Species: RAT, Strain/Sex: WISTAR/MALE, Target Tissue: Type of Lesion: COLON: TUMOR, Dose [Carcinogen]: 7.4 MG/KG BW IN 0.9% SALINE SOLUTION 1/WK FOR 10 WK, Promoter: NONE USED); 15/18 (83%), 9/20 (45%), 46%, p<0.05 (Carcinogen: N-METHYL-N'-NITRO-N-NITROSOGUANIDINE, 70-25-7, Dose [Inhibitor]: 0, 0.1 MG/KG IN OLIVE OIL SUSPENSION 1/D BEGINNING 1 WK POST LAST CARCINOGEN DOSE AND CONTINUING FOR DURATION OF STUDY (, Species: RAT, Strain/Sex: WISTAR/MALE, Target Tissue: Type of Lesion: GLANDULAR STOMACH: ADENOCARCINOMA, Dose [Carcinogen]: 50 UG/ML IN DRINKING WATER FOR 25 WK, Promoter: NONE USED).
